ChEMBL document CHEMBL4311942, “Design of Trp-Rich Dodecapeptides with Broad-Spectrum Antimicrobial Potency and Membrane-Disruptive Mechanism” (J Med Chem, 2019)
In brackets after ≈: the same amount, converted by molar mass. Where a SMILES comes first, the peptide text is derived from it.

Legend:
[1] = tested on: Staphylococcus aureus; assay: Antibacterial activity against Staphylococcus aureus ATCC 29213 incubated for 18 to 24 hrs by broth microdilution method; type: functional
[2] = tested on: Erythrocyte; assay: Haemolytic activity in human erythrocytes assessed as lowest concentration causing 5% hemolysis after 1 hr; type: ADME, cell-based
[3] = tested on: Escherichia coli; assay: Antibacterial activity against Escherichia coli ATCC 25922 incubated for 18 to 24 hrs by broth microdilution method; type: functional
[4] = tested on: Staphylococcus aureus; assay: Antibacterial activity against Staphylococcus aureus ATCC 25923 incubated for 18 to 24 hrs by broth microdilution method; type: functional
[5] = tested on: Salmonella typhimurium; assay: Antibacterial activity against Salmonella enterica serovar typhimurium C77-31 incubated for 18 to 24 hrs by broth microdilution method; type: functional, Salmonella enterica subsp. enterica serovar Typhimurium
[6] = tested on: Staphylococcus epidermidis; assay: Antibacterial activity against Staphylococcus epidermidis ATCC 12228 incubated for 18 to 24 hrs by broth microdilution method; type: functional
[7] = tested on: Escherichia coli; assay: Antibacterial activity against Escherichia coli UB1005 incubated for 18 to 24 hrs by broth microdilution method; type: functional
[8] = tested on: RAW264.7; assay: (§1) Cytotoxicity against mouse RAW264.7 cells assessed as cell survival at <= 32 uM after 24 hrs by MTT assay relative to control; type: cell-based; conditions: raw264.7, 24 h
[9] = Therapeutic index, ratio of MHC for human RBC to geometric mean of peptide MIC for Escherichia coli ATCC 25922; type: toxicity; conditions: pooled result: one value given for 6 cell lines, strains, targets or settings, read-out: TI
[10] = Solubility of the compound; type: physicochemical
[11] = as §1; type: cell-based; conditions: RAW264.7 cells, up to 32 µM, read-out: Activity

CC(C)C[C@H](NC(=O)[C@H](Cc1c[nH]c2ccccc12)NC(=O)[C@H](CCCCN)NC(=O)[C@H](CCCNC(=N)N)NC(=O)[C@@H](NC(=O)[C@H](Cc1c[nH]c2ccccc12)NC(=O)[C@H](CCCCN)NC(=O)[C@H](CCCNC(=N)N)NC(=O)[C@H](CC(C)C)NC(=O)[C@H](Cc1c[nH]c2ccccc12)NC(=O)[C@@H](N)CCCNC(=N)N)[C@@H](C)O)C(=O)N[C@@H](CCCCN)C(N)=O (H-RWLRKWTRKWLK-NH2)
MIC [1]: 8 µM (≈ 14 µg/mL)
MHC [2]: > 128 µM
MIC [3]: 4 µM (≈ 7.02 µg/mL)
MIC [4]: 16 µM (≈ 28.1 µg/mL)
MIC [5]: 16 µM (≈ 28.1 µg/mL)
MIC [6]: 8 µM (≈ 14 µg/mL)
MIC [7]: 4 µM (≈ 7.02 µg/mL)
Activity [8]: Non-Toxic
selectivity ratio [9]: 32

CC(C)C[C@H](NC(=O)[C@H](CCCNC(=N)N)NC(=O)[C@H](Cc1c[nH]c2ccccc12)NC(=O)[C@H](CCCNC(=N)N)NC(=O)[C@@H](NC(=O)[C@H](Cc1c[nH]c2ccccc12)NC(=O)[C@H](Cc1c[nH]c2ccccc12)NC(=O)[C@H](CCCNC(=N)N)NC(=O)[C@H](CC(C)C)NC(=O)[C@H](Cc1c[nH]c2ccccc12)NC(=O)[C@@H](N)CCCNC(=N)N)[C@@H](C)O)C(=O)N[C@@H](CCCCN)C(N)=O (H-RWLRWWTRWRLK-NH2)
MIC [1]: 4 µM (≈ 7.37 µg/mL)
MHC [2]: 128 µM
MIC [3]: 4 µM (≈ 7.37 µg/mL)
MIC [4]: 2 µM (≈ 3.68 µg/mL)
solubility [10]: Insoluble
MIC [5]: 4 µM (≈ 7.37 µg/mL)
MIC [6]: 4 µM (≈ 7.37 µg/mL)
MIC [7]: 2 µM (≈ 3.68 µg/mL)
viability at 24 h [11]: ≥ 70%
selectivity ratio [9]: 40.4
